Experimental data taken from patent US7091345B2, “Amino-substituted dihydropyrimido[4,5-D]pyrimidinone derivatives” (Hoffmann-La Roche Inc., priority 2002, dated 2006).
Where a name gives a salt, the structure may show the parent alone.

How the values were obtained:
Src (p60^c-src) = target: T1, Src (p60^c-src) (Homo sapiens, UniProt P12931); assay: SRC-Inhibitor-Assay, time-resolved fluorescence kinase assay (Src); format: biochemical; settings: ATP 5 μM; enzyme 2.5 U/ml; pre-incubation 15 min at 15° C.; read-out: IC 50 (src)
T1 construct: purchased Upstate (UBI)
T1 sequence (P12931 whole entry): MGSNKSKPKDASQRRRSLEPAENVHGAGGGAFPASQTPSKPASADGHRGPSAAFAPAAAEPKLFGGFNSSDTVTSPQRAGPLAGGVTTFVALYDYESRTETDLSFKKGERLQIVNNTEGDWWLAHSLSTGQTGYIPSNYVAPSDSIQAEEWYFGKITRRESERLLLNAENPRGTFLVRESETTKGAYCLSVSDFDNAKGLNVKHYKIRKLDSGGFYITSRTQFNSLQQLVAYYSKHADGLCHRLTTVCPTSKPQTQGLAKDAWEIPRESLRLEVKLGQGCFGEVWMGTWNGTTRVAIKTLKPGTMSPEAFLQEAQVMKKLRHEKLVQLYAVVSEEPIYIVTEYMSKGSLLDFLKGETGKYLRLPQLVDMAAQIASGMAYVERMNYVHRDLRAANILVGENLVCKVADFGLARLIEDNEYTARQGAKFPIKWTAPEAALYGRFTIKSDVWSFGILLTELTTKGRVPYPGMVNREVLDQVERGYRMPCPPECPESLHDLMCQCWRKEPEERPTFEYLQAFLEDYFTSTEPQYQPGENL
Procedure: (§1) The activity of the compounds according to this invention as inhibitors for the src-family tyrosine kinases was shown by using the following assay.
(§2) SRC-Inhibitor-Assay Parameters:
(§3) Assay buffer: 4 mM MgCl2 • 2 mM TCEP • 50 mM HEPES • 0,1% Tween 20 • pH 7.3
(§4) Material: Eu-labelled phosphotyrosine antibody:—for Lck Cisbio Mab PT66-K, for Src EG&G Wallac PT66 Eu-W1024 (all commercially available). Peptides: Ro: NH2-A-E-E-E-I-Y-G-E-F-E-A-K-K-K-K-CONH2, and Ja133-Ro: Ja133-G-Aminocaprylic acid-A-E-E-E-I-Y-G-E-F-E-A-K-K-K-K-CONH2, wherein Ja133 is LightCycler-Red 640-N-hydroxy succinimide ester; whereby both peptides were synthesized by an optimized solid phase peptide synthesis protocol (Merrifield, Fed. Proc. Fed. Amer. Soc. Exp. Biol. 21 (1962) 412) on a Zinsser SMP350 peptide synthesizer. Shortly, the peptide was assembled on 160 mg (22.8 μmol scale) of a Rink-Linker modified polystyrene solid phase by repeatedly conjugating an twenty fold excess of amino acids each protected by temporary piperidine labile Fmoc- and permanent acid labile tert-Bu-, BOC— and Otert-Bu-groups depending on the side chain function. The substrate sequence AEEEIYGEFEAKKKK was N-terminal additionally mounted with the spacer amino acids Aminocaprylic acid and Glycin. After cleavage of the N-terminal temporary protecting group the still attached and protected peptide was labeled with a 1.5 fold amount of LightCycler-Red 640-N-hydroxy succinimide ester (purchased by Roche Diagnostics GmbH) and triethylamine. After 3 hrs. the resin was washed with Dimethylformamide and Isopropanol until the eluates of the blue resin got colourless. […] The substrate was finally isolated by a preparative reverse phase HPLC purification. The purification yielded 12.2 mg RP-HPLC single peak pure blue material (lyophilisate). The identity was proven by MALDI mass spectroscopy [2720.0]. Enzymes: Upstate Lck (p56^lck, active), Upstate Src (p60^c-src, partially purified) were purchased from UBI. Time-resolved Fluorescence Assay: Reader: Perkin Elmer, Wallac Viktor 1420-040 multilabel counter; Liquid handling system: Beckman Coulter, Biomek 2000. ATP, Tween 20, HEPES were purchased from Roche Molecular Biochemicals, MgCl2 and MnCl2 were purchased from Merck Eurolab, TCEP was purchased from Pierce, 384 Well low volume fluorescence plates was purchased from Falcon. Assay Description:
(§5) At first the enzyme is pre-incubated for 15 min. at 15° C. in aqueous solution with corresponding amounts of inhibitors according to this invention. Then the phosphorylation reaction is started by adding a reaction mixture, containing ATP, Peptide and PT66, and subsequent shaking. The proceeding of this reaction is immediately monitored using time resolved fluorescence spectroscopy in a suitable well plate reader.
(§6) The IC50-values can be obtained from the reaction rates by using a non-linear curve fit (Excelfit).

Lck (p56^lck) = target: T2, Lck (p56^lck) (Homo sapiens, UniProt P06239); assay: SRC-Inhibitor-Assay, time-resolved fluorescence kinase assay (Lck); format: biochemical; settings: ATP 5 μM; enzyme 2.5 U/ml; pre-incubation 15 min at 15° C.; read-out: IC 50 (lck)
T2 construct: purchased Upstate (UBI)
T2 sequence (P06239 whole entry, species assumed): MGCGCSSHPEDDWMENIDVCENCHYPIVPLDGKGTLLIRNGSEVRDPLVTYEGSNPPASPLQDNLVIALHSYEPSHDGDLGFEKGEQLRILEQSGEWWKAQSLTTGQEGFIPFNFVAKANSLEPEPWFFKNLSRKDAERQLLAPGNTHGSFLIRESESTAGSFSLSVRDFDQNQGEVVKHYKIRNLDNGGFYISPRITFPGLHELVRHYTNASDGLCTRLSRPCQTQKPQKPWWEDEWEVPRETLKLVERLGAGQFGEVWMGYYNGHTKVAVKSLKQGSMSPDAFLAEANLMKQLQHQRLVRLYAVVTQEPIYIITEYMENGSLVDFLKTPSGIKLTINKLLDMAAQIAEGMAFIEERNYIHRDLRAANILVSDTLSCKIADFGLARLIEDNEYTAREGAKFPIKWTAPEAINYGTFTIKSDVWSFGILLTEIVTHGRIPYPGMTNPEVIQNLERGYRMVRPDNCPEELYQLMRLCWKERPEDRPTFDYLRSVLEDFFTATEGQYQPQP
Procedure: as §1, §2, §3, §4, §5, §6

[1] = Pharmacokinetic study in mice, plasma levels after single p.o. dose; format: in vivo; settings: male NMRI mice, p.o. single dose 30 mg/kg as micro-suspension, dose-normalised
Procedure: A preferred pharmaceutical preparation was obtained by using the following procedure: • 1. Weigh 4.0 g glass beads in custom made tube GL 25, 4 cm (the beads fill half of the tube). • 2. Add 50 mg compound, disperse with spatulum and vortex. • 3. Add 2 ml gelatin solution (weight beads: gelatin solution=2:1) and vortex. • 4. Cap and wrap in aluminium foil for light protection. • 5. Prepare a counter balance for the mill. • 6. Mill for 4 hours, 20/s in a Retsch mill (for some substances up to 24 hours at 30/s). • 7. Extract suspension from beads with two layers of filter (100 μm) on a filter holder, coupled to a recipient vial by centrifugation at 400 g for 2 min. • 8. Move extract to measuring cylinder. • 9. Repeat washing with small volumes (here 1 ml steps) until final volume is reached or extract is clear. • 10. Fill up to final volume with gelatin and homogenise.
The above described preparation yields micro-suspensions of the compounds of formula I with particle sizes between 1 and 10 μm. The suspensions are suitable for oral applications and were used in the in vivo pharmacokinetic testings described below.
To male NMRI mice of 29–35 g body weight the compounds according to this invention were given p.o. as micro-suspensions (7.5% modified gelatine and 0.22% NaCl) in doses of 30 mg/kg (Drug concentration: 3 mg/mL. Administered volume: 10 mL/kg) and as single dose administration. Study Protocol:
Animals were fasted overnight up to 4 hrs. after administration of the compound. For each single p.o. dose the mice were allocated to 3 groups with 4 animals each. Blood samples are taken from group 1 at 0.5, 3 and 24 hours, from group 2 at 1 and 6 hours, and from group 3 at 2 and 8 hours.
Blood samples of about 200 μl were obtained by retro-orbital puncture. Plasma samples were obtained from heparinized/EDTA blood by centrifugation at room temperature, and stored frozen at −20° C. until analysis.
Plasma was deproteinated and subsequently analysed for plasma levels of the compound by a compound specific HPLC-MS method. WinNonlin™ was used to calculate the pharmacokinetic parameters.

SMILES	IC50 (Src (p60^c-src))	IC50 (Lck (p56^lck))	AUC = area under the curve from T = 0 to T = 24 hrs [1]
CC1c2cnc(Nc3ccc4c(c3)S(=O)(=O)CCO4)nc2N(C)C(=O)N1c1ccccc1Br (single isomer, unassigned; enantiomer 2) [Example 13-50, 3-(2-Bromo-phenyl)-7-(4,4-dioxo-3,4-dihydro-2H-4λ^6-benzo[1,4]oxathiin-6-ylamino)-1,4-dimethyl-3,4-dihydro-1H-pyrimido[4,5-d]pyrimidin-2-one; enantiomer 2]	2970 nM	1340 nM	
CC1c2cnc(Nc3ccc4c(c3)S(=O)(=O)CC(=O)N4C)nc2N(C)C(=O)N1c1ccccc1Br (single isomer, unassigned; enantiomer 2) [Example 13-51, 3-(2-Bromo-phenyl)-1,4-dimethyl-7-(4-methyl-1,1,3-trioxo-1,2,3,4-tetrahydro-1λ^6-benzo[1,4]thiazin-7-ylamino)-3,4-dihydro-1H-pyrimido[4,5-d]pyrimidin-2-one; enantiomer 2]	2520 nM	1280 nM	
CC(=O)N1CCC2(CC1)Oc1ccc(Nc3ncc4c(n3)N(C)C(=O)N(c3ccccc3Br)C4)cc1O2 [Example 6, 3-(2-bromo-phenyl)-3,4-dihydro-7-(1′-acetyl-spiro[1,3-benzodioxolo-2,4′-piperidine]-5-yl)amino-1-methyl-pyrimido[4,5-d]pyrimidin-2(1H)-one]			315 (h * ng/ml))/(mg/kg)
CN1C(=O)N(c2ccccc2Br)Cc2cnc(Nc3ccc4c(c3)S(=O)(=O)CO4)nc21 [Example 13-4, 3-(2-bromo-phenyl)-7-(3,3-dioxo-2,3-dihydro-3lambda*6*-benzo[1,3]oxathiol-5-ylamino)-1-methyl-3,4-dihydro-1H-pyrimido[4,5-d]pyrimidin-2-one]	17 nM	29.4 nM	
CN1C(=O)N(c2ccccc2Br)Cc2cnc(Nc3ccc4c(c3)OCO4)nc21 [Example 13-8, 7-(benzo[1,3]dioxol-5-ylamino)-3-(2-bromo-phenyl)-1-methyl-3,4-dihydro-1H-pyrimido[4,5-d]pyrimidin-2-one]	17 nM	20 nM	
CN1C(=O)c2ccc(Nc3ncc4c(n3)N(C)C(=O)N(c3c(F)cccc3Br)C4)cc2C1=O [Example 13-16, 5-[6-(2-bromo-6-fluoro-phenyl)-8-methyl-7-oxo-5,6,7,8-tetrahydro-pyrimido[4,5-d]pyrimidin-2-ylamino]-2-methyl-isoindole-1,3-dione]	11 nM	21 nM	
COc1ccc(Br)c(N2Cc3cnc(Nc4ccc5c(c4)S(=O)(=O)CCO5)nc3N(C)C2=O)c1 [Example 13-48, 3-(2-Bromo-5-methoxy-phenyl)-7-(4,4-dioxo-3,4-dihydro-2H-4λ^6-benzo[1,4]oxathiin-6-ylamino)-1-methyl-3,4-dihydro-1H-pyrimido[4,5-d]pyrimidin-2-one]	72.8 nM	37.5 nM	
COc1cccc(F)c1N1Cc2cnc(Nc3ccc4c(c3)S(=O)(=O)CCO4)nc2N(C)C1=O [Example 13-49, 7-(4,4-Dioxo-3,4-dihydro-2H-4λ^6-benzo[1,4]oxathiin-6-ylamino)-3-(2-fluoro-6-methoxy-phenyl)-1-methyl-3,4-dihydro-1H-pyrimido[4,5-d]pyrimidin-2-one]	7.2 nM	5.4 nM	
CCN(CC)CCOc1ccc(Nc2ncc3c(n2)N(C)C(=O)N(c2ccccc2Br)C3)cc1 [Reference cpd 43 from WO 00/24744A, 3-(2-bromo-phenyl)-7-[4-(2-diethylamino-ethoxy)-phenylamino]-1-methyl-3,4-dihydro-1H-pyrimido[4,5-d]pyrimidin-2-one, reference compound]			69.3 (h * ng/ml))/(mg/kg)

The remaining compounds from weak to strong by IC50 (Src (p60^c-src)), led by results:

IC50 (Src (p60^c-src))	IC50 (Lck (p56^lck))	SMILES	AUC = area under the curve from T = 0 to T = 24 hrs [1]
4.3 nM	12.9 nM	CN1C(=O)N(c2c(F)cccc2C#N)Cc2cnc(Nc3ccc4c(c3)S(=O)(=O)CCO4)nc21 [Example 13-53, 2-[7-(4,4-Dioxo-3,4-dihydro-2H-4λ^6-benzo[1,4]oxathiin-6-ylamino)-1-methyl-2-oxo-1,4-dihydro-2H-pyrimido[4,5-d]pyrimidin-3-yl]-3-fluoro-benzonitrile]	
2.5 nM	6.7 nM	O=C1CS(=O)(=O)c2cc(Nc3ncc4c(n3)NC(=O)N(c3c(F)cccc3Br)C4)ccc2N1 [Example 13-29]	
1.8 nM	4.7 nM	CN1C(=O)N(c2c(F)cccc2Br)Cc2cnc(Nc3ccc4c(c3)S(=O)(=O)CCO4)nc21 [Example 8, 3-(2-bromo-6-fluoro-phenyl)-7-(4,4-dioxo-3,4-dihydro-2H-4λ^6-benzo[1,4]oxathiin-6-ylamino)-1-methyl-3,4-dihydro-1H-pyrimido[4,5-d]pyrimidin-2-one]	
1.5 nM	4.2 nM	CN1Cc2ccc(Nc3ncc4c(n3)N(C)C(=O)N(c3ccccc3Br)C4)cc2C1 [Example 13-3, 3-(2-bromo-phenyl)-1-methyl-7-(2-methyl-2,3-dihydro-1H-isoindol-5-ylamino)-3,4-dihydro-1H-pyrimido[4,5-d]pyrimidin-2-one; hydrochloride salt]	
0.8 nM	4.3 nM	CN1CCS(=O)(=O)c2cc(Nc3ncc4c(n3)N(C)C(=O)N(c3c(F)cccc3Br)C4)ccc21 [Example 11, 3-(2-bromo-6-fluoro-phenyl)-1-methyl-7-(4-methyl-1,1-dioxo-1,2,3,4-tetrahydro-1lambda*6*-benzo[1,4]thiazin-7-ylamino)-3,4-dihydro-1H-pyrimido[4,5-d]pyrimidin-2-one]	
0.4 nM	8.1 nM	CC1c2cnc(Nc3ccc4c(c3)S(=O)(=O)CCO4)nc2N(C)C(=O)N1c1ccccc1Br (single isomer, unassigned; enantiomer 1) [Example 8a, 3-(2-Bromo-phenyl)-7-(4,4-dioxo-3,4-dihydro-2H-4λ^6-benzo[1,4]oxathiin-6-ylamino)-1,4-dimethyl-3,4-dihydro-1H-pyrimido[4,5-d]pyrimidin-2-one; enantiomer 1]	
0.019 nM	0.0246 nM	CC1c2cnc(Nc3ccc4c(c3)S(=O)(=O)CC(=O)N4C)nc2N(C)C(=O)N1c1ccccc1Br (single isomer, unassigned; enantiomer 1) [Example 13-52, 3-(2-Bromo-phenyl)-1,4-dimethyl-7-(4-methyl-1,1,3-trioxo-1,2,3,4-tetrahydro-1λ^6-benzo[1,4]thiazin-7-ylamino)-3,4-dihydro-1H-pyrimido[4,5-d]pyrimidin-2-one; enantiomer 1]	
